Tested on: bacterial population
Assay: Suspension test (kill in 10 minutes)
Settings: 0.1% citric acid alone
Procedure: Formula A of Table I includes addition of LAE (0.1%) plus APG (1.0%) and enables the use of citric acid levels as low at 0.1% with complete kill in suspension test in 10 minutes.

SMILES: O=C(O)CC(O)(CC(=O)O)C(=O)O [citric acid]
- kill in suspension test: little or no kill

Source: patent US11753603B2, “Acidic cleaning and disinfecting compositions comprising a citric/methansulfonic acid mixture” (THE CLOROX COMPANY, priority 2020, dated 2023)
